Assay results from PubChem BioAssay AID743097 (Vanderbilt Specialized Chemistry Center, 2013).
Active and inactive are the calls of the source. No rule for the calls is given here.

Molecular target: Muscarinic acetylcholine receptor M1 (Homo sapiens) (UniProt P11229)
Assay: M1 receptor positive allosteric modulation, selectivity assay for M5 PAM discovery project, cell-based, human M1 (AID 743097)
Settings: CHO-K1 hM1, Fluo-4 calcium flux, ACh EC20 potentiation

Muscarinic acetylcholine receptor M1 (Homo sapiens), sequence (P11229 whole entry, looked up): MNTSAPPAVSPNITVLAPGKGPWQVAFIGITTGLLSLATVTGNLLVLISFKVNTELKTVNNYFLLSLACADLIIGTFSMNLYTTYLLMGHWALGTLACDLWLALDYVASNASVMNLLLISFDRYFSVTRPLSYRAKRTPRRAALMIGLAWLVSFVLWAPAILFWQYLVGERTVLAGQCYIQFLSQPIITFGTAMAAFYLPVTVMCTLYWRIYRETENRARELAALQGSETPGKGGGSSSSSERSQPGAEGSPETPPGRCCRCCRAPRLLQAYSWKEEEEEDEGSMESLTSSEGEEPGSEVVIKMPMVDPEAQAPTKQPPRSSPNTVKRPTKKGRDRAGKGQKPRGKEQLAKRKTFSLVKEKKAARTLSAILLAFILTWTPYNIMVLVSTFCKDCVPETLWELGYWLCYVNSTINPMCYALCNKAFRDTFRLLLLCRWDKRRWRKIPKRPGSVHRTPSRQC

Compound	EC50 [µM]	% of ACh max response (at 30 µM (top of the series))
CCN(C(=O)C1CCN(S(=O)(=O)c2ccc3[nH]ncc3c2)CC1)[C@H](C)c1ccccc1	5.28	–
CCN(C(=O)C1CCN(S(=O)(=O)c2ccc(OC)cc2)CC1)[C@H](C)c1ccccc1	–	inactive
CCN(Cc1ccccc1C(F)(F)F)C(=O)C1(F)CCN(S(=O)(=O)c2ccc3[nH]ncc3c2)CC1	4.84	–
CCN(Cc1ccccc1C(F)(F)F)C(=O)C1CCN(S(=O)(=O)c2ccc3[nH]ncc3c2)CC1	6.99	–

Further molecules by falling EC50, results first:

EC50 [µM]	% of ACh max response (at 30 µM (top of the series))	Compound
3.97	–	CCN(Cc1ccccc1Cl)C(=O)C1CCN(S(=O)(=O)c2ccc3cn[nH]c3c2)CC1
2.52	–	CCN(Cc1ccccc1Cl)C(=O)C1CCN(S(=O)(=O)c2ccc3[nH]ncc3c2)CC1
